The target in the test is T1, hyaluronidase (Bos taurus, UniProt Q2YDK3).
T1 sequence (Q2YDK3 36-553): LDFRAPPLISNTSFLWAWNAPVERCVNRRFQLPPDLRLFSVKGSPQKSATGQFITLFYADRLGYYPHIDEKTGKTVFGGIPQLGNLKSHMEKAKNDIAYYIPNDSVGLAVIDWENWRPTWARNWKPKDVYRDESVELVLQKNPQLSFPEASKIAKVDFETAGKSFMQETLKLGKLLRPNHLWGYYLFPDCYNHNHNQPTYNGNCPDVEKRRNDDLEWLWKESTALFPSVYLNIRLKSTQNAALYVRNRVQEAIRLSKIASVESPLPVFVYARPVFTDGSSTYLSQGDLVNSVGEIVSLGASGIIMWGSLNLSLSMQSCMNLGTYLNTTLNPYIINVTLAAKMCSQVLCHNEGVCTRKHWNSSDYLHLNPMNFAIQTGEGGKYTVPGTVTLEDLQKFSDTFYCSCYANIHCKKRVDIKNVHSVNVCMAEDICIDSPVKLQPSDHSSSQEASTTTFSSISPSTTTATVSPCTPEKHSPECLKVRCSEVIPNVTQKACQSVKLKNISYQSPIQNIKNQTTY
Briefly: Hyaluronidase activity inhibition of exopolysaccharides. Particulars: hyaluronidase enzyme solution (MP Biomedicals), activated with Compound 48/80 and CaCl2, sodium hyaluronate substrate, pH 4.0, 37° C. Format: biochemical. As for the experimental part:
5 μL of a hyaluronidase enzyme solution (MP Biomedicals, 4 mg/mL, 100 mM sodium acetate buffer (pH 4.0)) was added to 10 μL of an aqueous solution containing polysaccharides at an optional concentration, which was prepared from the polysaccharide sample containing the neutral polysaccharide fractions and the acidic polysaccharide fractions, the neutral polysaccharide fractions, and the acidic polysaccharide fractions, which were exopolysaccharides produced by the strain IJH-SONE68 and obtained in Example 4. The resultant mixture was incubated at 37° C. for 20 minutes. Thereafter, to the mixture, 10 μL of an enzyme-activating solution (0.5 mg/ml Compound 48/80 (manufactured by MP Biomedicals)), 3.75 mg CaCl2·2H2O, and 100 mM sodium acetate buffer (pH 4.0)) were added, and incubated again at 37° C. for 20 minutes. Subsequently, to the resultant mixture, 25 μL of a sodium hyaluronate solution (Wako Pure Chemical Industries, 0.8 mg/mL, 100 mM sodium acetate buffer (pH 4.0)) was added, and further reacted at 37° C. for 40 minutes. After the reaction, the reaction was terminated by adding 10 μL of 0.4 M NaOH aqueous solution. […] 40 μL of the reaction solution was mixed with 200 μL of p-DMAB solution (described below), the mixture was reacted at 37° C. for 20 minutes, and the absorbance at 585 nm was then measured. […]

SMILES strings stand for the structures.

`CC1(C)[C@@H](O[C@H]2O[C@H](C(=O)[O-])[C@@H](O)[C@H](O)[C@H]2O[C@@H]2O[C@H](C(=O)[O-])[C@@H](O)[C@H](O)[C@H]2O)CC[C@]2(C)[C@H]3C(=O)C=C4[C@@H]5C[C@@](C)(C(=O)O)CC[C@]5(C)CC[C@@]4(C)[C@]3(C)CC[C@@H]12.[K+].[K+]` [Dipotassium glycyrrhizinate]: the “IC50 (hyaluronidase activity inhibition)” value was 530 µg/mL.

The values are drawn from US20230183388A1, “EXOPOLY[…] LACTIC ACID BACTERIUM AND USE THEREOF” (Asahi Kohsan Corporation, priority 2017, published 2023).
